Here are results for 17 molecules from article PMC9064011 (RSC Advances, 2019).

The subject of data set [1] is MCF-7 cells. Put plainly: MTT assay for tumor cell growth inhibition, MCF-7. It counts as cell-based. To be noted: Homo sapiens, MCF7, 48 h, read-out: IC50 MCF-7. Background: Tetrazolium dyes change colour on reduction, which living cells bring about.
In data set [2] the test system is HeLa cells. The data set is described as follows: MTT cell growth inhibition. It is filed as cell-based. To be noted: Homo sapiens.
Data set [3] concerns L-O2 cells. Put plainly: MTT assay for cell growth inhibition, L-O2. It counts as cell-based. To be noted: Homo sapiens, L02, 48 h, read-out: IC50 L-O2.
For data set [4], the system named is Hypoxia Inducible Factor-1 (HIF-1) pathway. Put plainly: cells. To be noted: Homo sapiens, HeLa, 12 h, read-out: HRE IC50.
Data set [5] has as its system HepG2 cells. Put plainly: MTT assay for tumor cell growth inhibition, HepG2. It is filed as cell-based. To be noted: Homo sapiens, HepG2, 48 h, read-out: IC50 HepG2.
Data set [6] deals with Hypoxia Inducible Factor-1 (HIF-1) pathway. To be noted: dual luciferase reporter system.
Data set [7] deals with H322 cell. To be noted: previous work in our laboratory, ref unpublished; cited from earlier work.
Data set [8] relates to hypoxia inducible factor-1 (HIF-1) transcription. To be noted: dual luciferase reporter assay, previous work in our laboratory, ref unpublished; cited from earlier work.

Usually IC50 stands for the concentration needed to halve the response being measured. The term GI50 denotes the concentration giving 50% growth inhibition.

For the molecule `COc1ccc(C#Cc2cccc(-c3ccc(OC)cc3)c2C(=O)O)cc1` [Compound 1b, 4′-Methoxy-3-((4-methoxyphenyl)ethynyl)-[1,1′-biphenyl]-2-carboxylic acid], the half-inhibitory concentration (IC50) was more than 100 µM in data set [1], more than 100 µM in data set [3], 20.7 ± 2.5 µM in data set [4] and more than 100 µM in data set [5]. Further, the GI50 in data set [2] is more than 100 µM.
In the case of `COc1ccc(C(=C2C=CC(=O)C=C2)c2cc(C#Cc3ccc(O)cc3)ccc2-c2ccc(O)cc2)cc1` [Compound 2j, 4-((4′-Hydroxy-4-((4-hydroxyphenyl)ethynyl)-[1,1′-biphenyl]-2-yl)(4-methoxyphenyl)methylene)cyclohexa-2,5-dien-1-one], the half-maximal inhibitory concentration (IC50) was determined as 12.1 ± 0.1 µM in data set [1], 11.1 ± 0.7 µM in data set [3] and 11.6 ± 0.6 µM in data set [5]. The molecule further had a concentration for 50% growth inhibition (GI50) in data set [2] of 4.47 ± 0.5 µM. Further, in data set [6], the “HIF inhibitory activity (in words)” value is “little HIF inhibitory activity”.
In the case of `COc1ccc(-c2ccc(C#Cc3ccc(O)cc3)cc2C(O)(c2ccc(OC)cc2)c2ccc(OC)cc2)cc1` [Compound 2g, 4-((2-(Hydroxybis(4-methoxyphenyl)methyl)-4′-methoxy-[1,1′-biphenyl]-4-yl)ethynyl)phenol], the concentration for half-maximal inhibition (IC50) in data set [1] was 13 ± 0.7 µM; in data set [3], 16.4 ± 1.3 µM; in data set [4], 8.1 ± 1.4 µM; in data set [5], 15.1 ± 0.6 µM. This molecule also returned a GI50 in data set [2] of 15.48 ± 0.1 µM.
In the same order, the values of `COc1ccc(C#Cc2ccc(-c3ccc(OC)cc3)c(C(=O)c3ccc(OC)cc3)c2)cc1` [Compound 2c, (4′-Methoxy-4-((4-methoxyphenyl)ethynyl)-[1,1′-biphenyl]-2-yl)(4-methoxyphenyl)methanone] are more than 100 µM, more than 100 µM, 39.9 ± 3.1 µM, more than 100 µM and more than 100 µM.
`COc1ccc(C(O)(c2ccc(OC)cc2)c2cc(C#Cc3ccc(O)cc3)ccc2-c2ccc(O)cc2)cc1` [Compound 2h, 2′-(hydroxybis(4-methoxyphenyl)methyl)-4′-((4-hydroxyphenyl)ethynyl)-[1,1′-biphenyl]-4-ol]: the 50% inhibitory concentration (IC50) turned out to be 11.9 ± 0.5 µM in data set [1], 10.6 ± 1.1 µM in data set [3], 2.52 ± 0.4 µM in data set [4] and 11.8 ± 0.8 µM in data set [5]. In data set [2], the GI50 is 10.8 ± 0.3 µM.
`O=c1oc(-c2ccc(O)cc2)cc2cccc(-c3ccc(O)cc3)c12` [Compound 1e, 3,8-Bis(4-hydroxyphenyl)-1H-isochromen-1-one]: the IC50 in data set [1] stood at 95.57 ± 0.4 µM; in data set [3], 92.5 ± 2 µM; in data set [4], 13.7 ± 0.4 µM; in data set [5] it was 55.5 ± 1.9 µM. The molecule further yielded a GI50 in data set [2] of 86.31 ± 0.5 µM.
The like results for `COc1ccc(C#Cc2ccc(-c3ccc(OC)cc3)c(C(O)(c3ccc(OC)cc3)c3ccc(OC)cc3)c2)cc1` [Compound 2e, (4′-Methoxy-4-((4-methoxyphenyl)ethynyl)-[1,1′-biphenyl]-2-yl)bis(4-methoxyphenyl)methanol] were, in that order, more than 100 µM, more than 100 µM, 20.8 ± 0.8 µM, more than 100 µM and more than 100 µM.
On to `Cc1ccc(-c2ccc(O)cc2)c(C(=C2C=CC(=O)C=C2)c2ccc(O)cc2)c1C#Cc1ccc(O)cc1` [selaginellin B], for which the “cytotoxicity against H322 cell” value in data set [7] was “moderately cytotoxic”.
Regarding `COc1ccc(C#Cc2ccc(-c3ccc(OC)cc3)c(C(=O)O)c2)cc1` [Compound 2b, 4′-Methoxy-4-((4-methoxyphenyl)ethynyl)-[1,1′-biphenyl]-2-carboxylic acid], the IC50 was more than 100 µM in data set [1], more than 100 µM in data set [3], 15.6 ± 1.6 µM in data set [4] and more than 100 µM in data set [5]. In data set [2], this molecule yielded a GI50 of more than 100 µM.
Consider `CCCCC(O)(c1ccc(OC)cc1)c1cc(C#Cc2ccc(OC)cc2)ccc1-c1ccc(OC)cc1` (stereo not shown) [Compound 2f, 1-(4′-methoxy-4-((4-methoxyphenyl)ethynyl)-[1,1′-biphenyl]-2-yl)-1-(4-methoxyphenyl)pentan-1-ol], for which the half-maximal inhibitory concentration (IC50) in data set [1] was more than 100 µM; in data set [3], more than 100 µM; in data set [4] it was 1.89 ± 0.4 µM; in data set [5], more than 100 µM. This molecule registered a concentration for 50% growth inhibition (GI50) in data set [2] of more than 100 µM.
Turning to `COc1ccc(C#Cc2cccc(-c3ccc(OC)cc3)c2C(=O)c2ccc(OC)cc2)cc1` [Compound 1c, (4′-Methoxy-3-((4-methoxyphenyl)ethynyl)-[1,1′-biphenyl]-2-yl)(4-methoxyphenyl)methanone], the concentration for half-maximal inhibition (IC50) worked out at 7.18 ± 1.2 µM in data set [1] and 2.36 ± 0.4 µM in data set [4]. In addition, in data set [2], it took 3.75 ± 0.2 µM to inhibit growth by half (GI50).
On to `COc1ccc(C(=O)c2cc(C#Cc3ccc(O)cc3)ccc2-c2ccc(O)cc2)cc1` [Compound 2d, (4′-Hydroxy-4-((4-hydroxyphenyl)ethynyl)-[1,1′-biphenyl]-2-yl)(4-methoxyphenyl)methanone], for which the 50% inhibitory concentration (IC50) was 6.49 ± 0.1 µM in data set [1], 7.83 ± 1.2 µM in data set [3], 4.47 ± 0.6 µM in data set [4] and 24.99 ± 0.1 µM in data set [5]. In addition, it took 3.24 ± 0.1 µM to inhibit growth in data set [2] by half (GI50).
On to `Cc1ccc(-c2ccc(O)cc2)c(C(=C2C=CC(=O)C=C2)c2ccccc2)c1C#Cc1ccc(O)cc1` [selaginellin A], for which the “cytotoxicity against H322 cell” value in data set [7] is on record as “moderately cytotoxic”. Moreover, the “inhibitory activity on HIF-1 transcription” value in data set [8] was “displayed inhibitory activity”.
Take `COc1ccc(C2(c3ccc(OC)cc3)c3cc(O)ccc3-c3ccc(C#Cc4ccc(O)cc4)cc32)cc1` [Compound 2i, 7-((4-Hydroxyphenyl)ethynyl)-9,9-bis(4-methoxy-phenyl)-9H-fluoren-2-ol]: the IC50 in data set [1] was 9.23 µM; in data set [3], 10.9 ± 1 µM; in data set [4], 5.55 ± 1.3 µM; in data set [5], 8.96 ± 0.4 µM. Moreover, the concentration for 50% growth inhibition (GI50) in data set [2] turned out to be 7.58 ± 0.1 µM.
In the case of `COC(=O)c1cc(C#Cc2ccc(OC)cc2)ccc1-c1ccc(OC)cc1` [Compound 2a, Methyl 4′-methoxy-4-((4-methoxyphenyl)ethynyl)-[1,1′-biphenyl]-2-carboxylate], the 50% inhibitory concentration (IC50) was more than 100 µM in data set [1], more than 100 µM in data set [3], 18.3 ± 1.6 µM in data set [4] and more than 100 µM in data set [5]. The GI50 in data set [2] is more than 100 µM.
With `COc1ccc(C(=O)c2c(C#Cc3ccc(O)cc3)cccc2-c2ccc(O)cc2)cc1` [Compound 1d, (4′-Hydroxy-3-((4-hydroxyphenyl)ethynyl)-[1,1′-biphenyl]-2-yl)(4-methoxyphenyl)methanone], the 50% inhibitory concentration (IC50) was determined as 51.2 ± 0.6 µM in data set [1], 64 ± 1 µM in data set [3], 9.52 ± 0.4 µM in data set [4] and 54.8 ± 1.9 µM in data set [5]. This molecule also registered a GI50 in data set [2] of 44.81 ± 0.2 µM.
The like results for `COC(=O)c1c(C#Cc2ccc(OC)cc2)cccc1-c1ccc(OC)cc1` [Compound 1a, Methyl 4′-methoxy-3-((4-methoxyphenyl)ethynyl)-[1,1′-biphenyl]-2-carboxylate] were, in that order, more than 100 µM, more than 100 µM, 5.41 ± 1.1 µM, more than 100 µM and more than 100 µM.
